One assay addresses T1, MKK7 (Homo sapiens, UniProt O14733).
T1 construct: gene MAP2K7; GST or His-tagged kinase from Reaction Biology (33PanQinase assay)
T1 sequence (O14733 2-419): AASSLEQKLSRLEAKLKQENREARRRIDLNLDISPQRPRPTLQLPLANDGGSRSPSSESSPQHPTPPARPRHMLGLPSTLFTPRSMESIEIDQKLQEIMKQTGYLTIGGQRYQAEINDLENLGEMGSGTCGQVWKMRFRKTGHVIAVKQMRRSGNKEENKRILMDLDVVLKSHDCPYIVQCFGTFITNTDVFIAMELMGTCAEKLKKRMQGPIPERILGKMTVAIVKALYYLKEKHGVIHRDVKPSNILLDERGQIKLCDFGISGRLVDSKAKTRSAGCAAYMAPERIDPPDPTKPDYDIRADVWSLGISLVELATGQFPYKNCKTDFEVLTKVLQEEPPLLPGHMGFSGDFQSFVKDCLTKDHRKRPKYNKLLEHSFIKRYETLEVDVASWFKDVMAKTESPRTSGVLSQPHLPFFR
As to the kind of experiment: radiometric […] kinase assay ([…]PanQinase). Format: biochemical. The settings on record: 3 μM ATP, 75.6 nM MKK7, JNK1 K55R K56R substrate; 3 mM MgCl2, 3 mM MnCl2, pH 7.5, 30 °C; 30 min preincubation; reversible covalent (imine, Lys221).

Another assay has as its target T2, MKK7 kinase domain (Homo sapiens, UniProt O14733).
T2 construct: gene MAP2K7; His-tagged kinase domain for intact-protein LC/MS
T2 sequence (O14733 117-419 limits assumed): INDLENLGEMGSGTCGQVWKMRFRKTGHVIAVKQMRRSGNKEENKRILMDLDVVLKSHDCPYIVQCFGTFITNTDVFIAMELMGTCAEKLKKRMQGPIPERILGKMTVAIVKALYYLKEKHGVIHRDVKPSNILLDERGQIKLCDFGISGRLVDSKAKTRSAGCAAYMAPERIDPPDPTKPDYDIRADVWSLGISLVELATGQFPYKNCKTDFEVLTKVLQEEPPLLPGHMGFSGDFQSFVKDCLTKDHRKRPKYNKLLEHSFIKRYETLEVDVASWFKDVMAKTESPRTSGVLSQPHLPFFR
As to the kind of experiment: intact protein LC/MS. It counts as binding. The note with it: covalent, reversible imine trapped with 5 mM NaBH4; 2 μM protein, HEPES pH 7.5, overnight 4 °C.

Turning to `O=Cc1ccc(-c2n[nH]c3ccccc23)cc1O` [compound 1], the IC50 – broadly, the concentration that gives 50% inhibition – against MKK7 was 0.738 µM. The “intact protein LC/MS” value at MKK7 kinase domain is recorded as “Significant labeling was detected only after the reduction of the complex”.

The record behind these values is PMC12152945, “Computational Design of Lysine Targeting Covalent Binders Using Rosetta” (Journal of Chemical Information and Modeling, 2025).
